The numbers were not newly measured in patent publication US20120232274A1, “PROCESS FOR PREPARATION OF CLOPIODOGREL BISULFATE FORM-1” (PHARMAZELL GMBH, priority 2009, published 2012), which cites them from elsewhere.

For data set [1] the following is noted: Form 2 compared with Form 1 of Clopidogrel bisulfate.
The conditions of data set [2]: Form 2 compared with Form 1 of Clopidogrel bisulfate. This is another data set of the same source.

With `COC(=O)[C@H](c1ccccc1Cl)N1CCc2sccc2C1` [Form 2, Clopidogrel bisulfate], in data set [1], the thermodynamic stability result is “greater thermodynamic stability”. In addition, the solubility entry in data set [2] is recorded as “lower solubility than Form 1”.
